Experimental data: patent US20240262806A1, “INHIBITORS OF NLRP3” (PTC THERAPEUTICS, INC., priority 2021, published 2024)

Each compound was assayed on NLRP3 inflammasome (assay: IL-1β Secretion Assay (NLRP3-dependent IL-1β secretion in PMA-differentiated THP-1 cells, nigericin activation, HTRF)). Conditions: Homo sapiens, THP-1, THP-1 cells, 100 ng/mL PMA 24 h, compound 20 h, 2.5 μM Nigericin 3 h; read-out: IC50 IL-1β Inhibition.
Type: cell-based
Summary of the method: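 PMA-differentiated THP-1 cells in RPMI with 5% FBS were treated with compounds at 7 concentrations in threefold DMSO dilutions. NLRP3 was activated with nigericin and secreted IL-1β measured by HTRF. IC50 from a logistic fit of percent inhibition versus concentration.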

Compound	IC50
CN1CCC[C@@H](Nc2nnc(-c3ccc(C(F)(F)F)cc3O)c3cnn(C)c23)C1 [Compound I-146, 2-[1-Methyl-7-[[(3R)-1-methyl-3-piperidyl]amino]pyrazolo[3,4-d]pyridazin-4-yl]-5-(trifluoromethyl)phenol]	< 0.001 µM
Cc1cc(O)c(-c2nnc(N[C@@H]3CCCN(C)C3)c3ccccc23)cc1F [Compound I-18]	0.001 to 0.01 µM
CN1C[C@H](F)C[C@@H](Nc2nnc(-c3ccc(Cl)cc3O)c3cncn23)C1 [Compound I-557]	0.001 to 0.01 µM
COc1ccc(-c2nnc(N[C@@H]3CCCN(C)C3)n3nccc23)c(O)c1 [Compound I-634, (R)-5-Methoxy-2-(7-((1-methylpiperidin-3-yl)amino)pyrazolo[1,5-d][1,2,4]triazin-4-yl)phenol]	0.01 to 0.1 µM
Oc1cc(C2CC2)cc(F)c1-c1nnc(N[C@@H]2CCC[C@H](O)C2)n2cccc12 [Compound I-424]	0.001 to 0.01 µM
CN1CCC[C@@H](Nc2nnc(-c3ccc(C(F)(F)F)cc3C(F)(F)F)c3c2CCC3)C1 [Compound I-259]	0.01 to 0.1 µM
Cc1cc(O)c(-c2nnc(N[C@@H]3CCCN(CC(F)F)C3)n3cccc23)c(F)c1 [Compound I-511]	0.001 to 0.01 µM
CN1CCC[C@@H](Nc2nnc(-c3ccc(C(F)(F)F)cc3N)c3ccccc23)C1 [Compound I-123]	0.001 to 0.01 µM
OCCN1CCC[C@@H](Nc2nnc(-c3ccc(Cl)cc3C(F)F)c3cccn23)C1 [Compound I-506]	0.01 to 0.1 µM
CN1CCC[C@@H](Nc2nnc(-c3ccc(C(F)(F)F)cc3O)c3sccc23)C1 [Compound I-4]	0.001 to 0.01 µM
CN1CCC[C@@H](Nc2nnc(-c3ccc(C(F)(F)F)cc3C#N)c3ccccc23)C1 [Compound I-131]	0.001 to 0.01 µM
CN1CCC[C@@H](Nc2nnc(-c3ccc(C(F)(F)F)cc3O)c3c2CCCCC3)C1 [Compound I-36, (R)-2-(4-((1-Methylpiperidin-3-yl)amino)-6,7,8,9-tetrahydro-5H-cyclohepta[d]pyridazin-1-yl)-5-(trifluoromethyl)phenol]	< 0.001 µM
Cc1ccc(-c2nnc(N[C@@H]3CCCN(C)C3)c3cnccc23)c(O)c1 [Compound I-71, 5-Methyl-2-[4-[[(3R)-1-methyl-3-piperidyl]amino]pyrido[3,4-d]pyridazin-1-yl]phenol]	< 0.001 µM
COc1ccc(-c2nnc(N[C@@H]3CCCN(C)C3)c3cnccc23)c(C(F)(F)F)c1 [Compound I-181]	0.001 to 0.01 µM
CCN1CCC[C@H]1CNc1nnc(-c2ccc(C(F)(F)F)cc2O)c2ccncc12 [Compound I-113]	< 0.001 µM
CN1CCCC(Cc2nnc(-c3ccc(C(F)(F)F)cc3O)c3cnccc23)C1 (centres unmarked) [Compound I-118, 2-(1-((1-Methylpiperidin-3-yl)methyl)pyrido[3,4-d]pyridazin-4-yl)-5-(trifluoromethyl)phenol]	0.001 to 0.01 µM
CN1CCC[C@@H](Nc2nnc(-c3ccc(Br)cc3O)c3cccn23)C1 [Compound I-484, (R)-5-Bromo-2-(4-((1-methylpiperidin-3-yl)amino)pyrrolo[1,2-d][1,2,4]triazin-1-yl)phenol]	0.001 to 0.01 µM
CC(C)(O)CN1CCC[C@@H](Nc2nnc(-c3c(O)cc(C(F)(F)F)cc3F)c3cccn23)C1 [Compound I-417]	0.001 to 0.01 µM
CN1CCC[C@@H](Nc2nnc(-c3ccc(C(F)(F)F)nc3O)c3ccccc23)C1 [Compound I-75]	0.01 to 0.1 µM
CN1CCC[C@H](Nc2nnc(-c3c(O)cccc3Cl)c3ccncc23)C1 [Compound I-139]	0.001 to 0.01 µM
CCOc1cc(O)c(-c2nnc(N[C@@H]3C[C@@H](F)CN(C)C3)n3cccc23)c(F)c1 [Compound I-631]	0.01 to 0.1 µM
CN1C[C@H](F)C[C@@H](Nc2nnc(-c3ccc(OC(F)(F)F)cc3OC(F)F)c3cccn23)C1 [Compound I-521]	0.001 to 0.01 µM

Compound	IC50
Oc1cc(C(F)(F)F)ccc1-c1nnc(N[C@@H]2CCCN(C3CCOCC3)C2)c2cnccc12 [Compound I-279]	< 0.001 µM
COc1cc(C(F)(F)F)ccc1-c1nnc(N[C@@H]2CCCN(C)C2)c2c1cnn2C [Compound I-144, 4-[2-Methoxy-4-(trifluoromethyl)phenyl]-1-methyl-N-[(3R)-1-methyl-3-piperidyl]pyrazolo[3,4-d]pyridazin-7-amine]	0.001 to 0.01 µM
Cc1cc2c(-c3ccc(C(F)(F)F)cc3OC(F)F)nnc(N[C@@H]3CCCN(C)C3)n2n1 [Compound I-330]	0.001 to 0.01 µM
CCN1CCC[C@@H](Nc2nnc(-c3c(O)cc(OC(F)F)cc3F)c3cccn23)C1 [Compound I-616]	< 0.001 µM
CN1C[C@H](F)C[C@@H](Nc2nnc(-c3ccc(C(F)(F)F)cc3O)c3ccccc23)C1 [Compound I-151]	< 0.001 µM
COc1ccc(-c2nnc(NC[C@@H](C)O)n3cccc23)c(O)c1 [Compound I-587]	0.01 to 0.1 µM
Cc1cc(Cl)cc(F)c1-c1nnc(N[C@@H]2CCCN(C)C2)c2cnccc12 [Compound I-198]	0.01 to 0.1 µM
CCN1CCC[C@@H](Nc2nnc(-c3ccc(OC)cc3O)c3cccn23)C1 [Compound I-377]	0.001 to 0.01 µM
CCN1CCC[C@@H](Nc2nnc(-c3ccc(C(F)(F)F)cc3O)c3cncn23)C1 [Compound I-360]	< 0.001 µM
CCN1CCC[C@@H](Nc2nnc(-c3ccc(OC)cc3O)c3ccnn23)C1 [Compound I-632]	0.001 to 0.01 µM
CN1C[C@H](F)C[C@@H](Nc2nnc(-c3c(O)cc(C4CC4)cc3F)c3cccn23)C1 [Compound I-445, 5-Cyclopropyl-3-fluoro-2-[4-[[(3R,5R)-5-fluoro-1-methyl-3-piperidyl]amino]-pyrrolo[1,2-d][1,2,4]triazin-1-yl]phenol]	0.001 to 0.01 µM
C[C@@H]1COCCN1CCNc1nnc(-c2ccc(C(F)(F)F)cc2O)c2ccccc12 [Compound I-147]	0.01 to 0.1 µM
COc1cc(O)c(-c2nnc(N[C@@H]3CCCN(CCO)C3)n3cccc23)c(F)c1 [Compound I-457]	0.001 to 0.01 µM
Cc1cc(O)c(-c2nnc(NC[C@@H](C)O)n3cccc23)c(F)c1 [Compound I-499]	0.01 to 0.1 µM
Cc1ccc(-c2nnc(N[C@@H]3CCCN(C)C3)n3cccc23)c(O)c1 [Compound I-337]	0.001 to 0.01 µM
FC(F)OCCN1CCC[C@@H](Nc2nnc(-c3ccc(C(F)(F)F)cc3OC(F)F)c3cccn23)C1 [Compound I-323, 1-[2-(difluoromethoxy)-4-(trifluoromethyl)phenyl]-N-[(3R)-1-[2-(difluoromethoxy)ethyl]-3-piperidyl]pyrrolo[1,2-d][1,2,4]triazin-4-amine]	0.001 to 0.01 µM
Oc1cc(C(F)(F)F)ccc1-c1nnc(NC2CNC2)c2ccccc12 [Compound I-109]	0.01 to 0.1 µM
Cc1cc2c(-c3c(O)cc(C(F)(F)F)cc3F)nnc(N[C@@H]3CCCN(C)C3)n2c1 [Compound I-607]	< 0.001 µM
CN(C)C1CCC[C@@H](Nc2nnc(-c3c(O)cc(C4CC4)cc3F)c3cccn23)C1 (some centres unmarked) [Compound I-541]	< 0.001 µM
COc1nc(C)ccc1-c1nnc(N[C@@H]2CCCN(C)C2)c2ccccc12 [Compound I-160]	0.1 to 0.3 µM
FC(F)Oc1cc(C(F)(F)F)ccc1-c1nnc(N[C@H]2CCOC2)n2cccc12 [Compound I-458]	0.1 to 0.3 µM

Same assay, conditions: THP-1 cells, 100 ng/mL PMA 24 h, compound 20 h, 2.5 μM Nigericin 3 h; read-out: IC50 IL-1β Inhibition

Compound	IC50
CN1CCC[C@@H](Nc2nnc(-c3c(F)ccc(Cl)c3O)c3ccncc23)C1 [Compound I-209]	0.001 to 0.01 µM
